In patent publication US10131652B2, “Pyrimidinyloxy benzene derivatives as herbicides” (E. I. DU PONT DE NEMOURS AND COMPANY, priority 2014, dated 2018):
Like-named read-outs stand apart in the source and are kept apart here.

How the values were obtained:
Experiment in all cases: Test D pre-/postemergence plant response
Type in all cases: in vivo
[1] = test system: pigweed (Amaranthus retroflexus); conditions: Amaranthus retroflexus; for pest or weed control at 62 g/ha: 62 g ai/ha; for pest or weed control at 125 g/ha: 125 g ai/ha
In short: (§1)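 Seeds sown in loam–sand blend got preemergence sprays of test chemicals in a non-phytotoxic solvent with surfactant; postemergence sprays went on plants at 1- to 4-leaf stage (2 to 18 cm) in peat/vermiculite medium. After 13 to 15 days in greenhouse, visual injury versus controls scored 0 (no effect) to 100 (complete control).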

[2] = test system: johnsongrass (Sorghum halepense); conditions: Sorghum halepense; for pest or weed control at 16 g/ha: 16 g ai/ha; for pest or weed control at 31 g/ha: 31 g ai/ha; for pest or weed control at 62 g/ha: 62 g ai/ha; for pest or weed control at 125 g/ha: 125 g ai/ha
In short: as §1

[3] = test system: velvetleaf (Abutilon theophrasti); conditions: Abutilon theophrasti; for pest or weed control at 16 g/ha: 16 g ai/ha; for pest or weed control at 31 g/ha: 31 g ai/ha; for pest or weed control at 62 g/ha: 62 g ai/ha; for pest or weed control at 125 g/ha: 125 g ai/ha
In short: as §1

[4] = test system: morningglory (Ipomoea coccinea); conditions: Ipomoea; for pest or weed control at 16 g/ha: 16 g ai/ha; for pest or weed control at 31 g/ha: 31 g ai/ha; for pest or weed control at 62 g/ha: 62 g ai/ha; for pest or weed control at 125 g/ha: 125 g ai/ha
In short: as §1

[5] = test system: giant foxtail (Setaria faberii); conditions: Setaria faberi; for pest or weed control at 16 g/ha: 16 g ai/ha; for pest or weed control at 31 g/ha: 31 g ai/ha; for pest or weed control at 62 g/ha: 62 g ai/ha; for pest or weed control at 125 g/ha: 125 g ai/ha
In short: as §1

soybean (Glycine max) = conditions: Glycine max; for plant injury at 16 g/ha: 16 g ai/ha; for plant injury at 31 g/ha: 31 g ai/ha; for plant injury at 62 g/ha: 62 g ai/ha; for plant injury at 125 g/ha: 125 g ai/ha
In short: as §1

[6] = test system: ragweed (common ragweed, Ambrosia elatior); conditions: Ambrosia artemisiifolia; for pest or weed control at 16 g/ha: 16 g ai/ha; for pest or weed control at 31 g/ha: 31 g ai/ha; for pest or weed control at 62 g/ha: 62 g ai/ha; for pest or weed control at 125 g/ha: 125 g ai/ha
In short: as §1

[7] = test system: barnyardgrass (Echinochloa crus-galli); conditions: Echinochloa crus-galli; for pest or weed control at 16 g/ha: 16 g ai/ha; for pest or weed control at 16 g/ha / pest or weed control at 31 g/ha: scale 0 to 100 (0 no effect, 100 complete control); for pest or weed control at 31 g/ha: 31 g ai/ha; for pest or weed control at 62 g/ha: 62 g ai/ha; for pest or weed control at 125 g/ha: 125 g ai/ha
In short: as §1

[8] = test system: lambsquarters (Chenopodium album); conditions: Chenopodium album; for pest or weed control at 16 g/ha: 16 g ai/ha; for pest or weed control at 31 g/ha: 31 g ai/ha; for pest or weed control at 62 g/ha: 62 g ai/ha; for pest or weed control at 125 g/ha: 125 g ai/ha
In short: as §1

[9] = post-emergence, Postemergence, scale 0 to 100, 0 no effect, 100 complete control, read-out: Plant response rating, Pigweed
[10] = post-emergence, Postemergence, scale 0 to 100 (0 no effect, 100 complete control), read-out: Johnsongrass plant response rating
[11] = post-emergence, Postemergence, scale 0 to 100, 0 no effect, 100 complete control, read-out: Plant response rating, Johnsongrass
[12] = pre-emergence, Preemergence, scale 0 to 100 (0 no effect, 100 complete control), read-out: Plant response rating, Johnsongrass
[13] = post-emergence, Postemergence, scale 0 to 100 (0 no effect, 100 complete control), read-out: Velvetleaf plant response rating
[14] = post-emergence, Postemergence, scale 0 to 100, 0 no effect, 100 complete control, read-out: Plant response rating, Velvetleaf
[15] = pre-emergence, Preemergence, scale 0 to 100 (0 no effect, 100 complete control), read-out: Plant response rating, Velvetleaf
[16] = post-emergence, Postemergence, scale 0 to 100 (0 no effect, 100 complete control), read-out: Morningglory plant response rating
[17] = post-emergence, Postemergence, scale 0 to 100, 0 no effect, 100 complete control, read-out: Plant response rating, Morningglory
[18] = pre-emergence, Preemergence, scale 0 to 100 (0 no effect, 100 complete control), read-out: Plant response rating, Morningglory
[19] = post-emergence, Postemergence, scale 0 to 100 (0 no effect, 100 complete control), read-out: Foxtail, Giant plant response rating
[20] = post-emergence, Postemergence, scale 0 to 100, 0 no effect, 100 complete control, read-out: Plant response rating, Foxtail, Giant
[21] = pre-emergence, Preemergence, scale 0 to 100 (0 no effect, 100 complete control), read-out: Plant response rating, Foxtail, Giant
[22] = post-emergence, Postemergence, scale 0 to 100 (0 no effect, 100 complete control), read-out: Soybean plant response rating
[23] = post-emergence, Postemergence, scale 0 to 100, 0 no effect, 100 complete control, read-out: Plant response rating, Soybean
[24] = pre-emergence, Preemergence, scale 0 to 100 (0 no effect, 100 complete control), read-out: Plant response rating, Soybean
[25] = post-emergence, Postemergence, scale 0 to 100 (0 no effect, 100 complete control), read-out: Ragweed plant response rating
[26] = post-emergence, Postemergence, scale 0 to 100, 0 no effect, 100 complete control, read-out: Plant response rating, Ragweed
[27] = pre-emergence, Preemergence, scale 0 to 100 (0 no effect, 100 complete control), read-out: Plant response rating, Ragweed
[28] = post-emergence, Postemergence, read-out: Barnyardgrass plant response rating
[29] = post-emergence, Postemergence, scale 0 to 100, 0 no effect, 100 complete control, read-out: Plant response rating, Barnyardgrass
[30] = pre-emergence, Preemergence, read-out: Plant response rating (scale 0 to 100), Barnyardgrass
[31] = pre-emergence, Preemergence, read-out: Plant response rating, Barnyardgrass
[32] = post-emergence, Postemergence, scale 0 to 100 (0 no effect, 100 complete control), read-out: Lambsquarters plant response rating
[33] = post-emergence, Postemergence, scale 0 to 100, 0 no effect, 100 complete control, read-out: Plant response rating, Lambsquarters
[34] = pre-emergence, Preemergence, scale 0 to 100 (0 no effect, 100 complete control), read-out: Plant response rating, Lambsquarters

FC(F)c1cc(-c2ccccc2Oc2ncc(Cl)cn2)on1 [Compound 53, 5-chloro-2-[2-[3-(difluoromethyl)-5-isoxazolyl]phenoxy]pyrimidine]
10%: pest or weed control at 16 g/ha [5, 21] | pest or weed control at 31 g/ha [7, 28]
30%: pest or weed control at 125 g/ha [5, 20]
40%: pest or weed control at 125 g/ha ([4]; pre-emergence, Preemergence, read-out: Plant response rating (scale 0 to 100), Morningglory) | pest or weed control at 16 g/ha [5, 19] | pest or weed control at 31 g/ha [6, 27] | pest or weed control at 62 g/ha [7, 30]
95%: pest or weed control at 16 g/ha ([1]; pre-emergence, Preemergence, 16 g ai/ha, scale 0 to 100 (0 no effect, 100 complete control), read-out: Plant response rating, Pigweed) | plant injury at 62 g/ha (soybean (Glycine max); [23]) | pest or weed control at 125 g/ha [7, 30]
55%: pest or weed control at 125 g/ha ([2]; pre-emergence, Preemergence, read-out: Plant response rating (scale 0 to 100), Johnsongrass) | pest or weed control at 16 g/ha [3, 13] | pest or weed control at 125 g/ha [4, 17] | plant injury at 62 g/ha (soybean (Glycine max); [24]) | pest or weed control at 62 g/ha [6, 26] | pest or weed control at 125 g/ha [6, 26] | pest or weed control at 62 g/ha [6, 27]
85%: pest or weed control at 62 g/ha [4, 17] | pest or weed control at 31 g/ha [5, 21] | pest or weed control at 125 g/ha ([6]; pre-emergence, Preemergence, read-out: Plant response rating (scale 0 to 100), Ragweed)
60%: pest or weed control at 31 g/ha [3, 13] | plant injury at 16 g/ha (soybean (Glycine max); [22])
80%: pest or weed control at 31 g/ha [4, 16] | plant injury at 125 g/ha (soybean (Glycine max); pre-emergence, Preemergence, read-out: Plant response rating (scale 0 to 100), Soybean) | pest or weed control at 31 g/ha [8, 32]
70%: pest or weed control at 62 g/ha [3, 14] | pest or weed control at 16 g/ha [8, 32]
50%: pest or weed control at 16 g/ha [4, 16] | pest or weed control at 16 g/ha [6, 25] | pest or weed control at 31 g/ha [6, 25]
25%: pest or weed control at 62 g/ha [5, 20] | plant injury at 31 g/ha (soybean (Glycine max); [24]) | pest or weed control at 62 g/ha [7, 29]
98%: pest or weed control at 62 g/ha [5, 21] | plant injury at 125 g/ha (soybean (Glycine max); [23])
90%: pest or weed control at 62 g/ha [1, 9] | plant injury at 31 g/ha (soybean (Glycine max); [22])
20%: pest or weed control at 31 g/ha [5, 19]
0%: pest or weed control at 16 g/ha [2, 10] | pest or weed control at 31 g/ha [2, 10] | pest or weed control at 16 g/ha [2, 12] | pest or weed control at 31 g/ha [2, 12] | pest or weed control at 16 g/ha [4, 18] | pest or weed control at 31 g/ha [4, 18] | plant injury at 16 g/ha (soybean (Glycine max); [24]) | pest or weed control at 16 g/ha [6, 27] | pest or weed control at 16 g/ha [7, 31]
45%: pest or weed control at 62 g/ha [4, 18]
100%: pest or weed control at 125 g/ha [1, 9] | pest or weed control at 125 g/ha ([1]; pre-emergence, Preemergence, read-out: Plant response rating (scale 0 to 100), Pigweed) | pest or weed control at 31 g/ha ([1]; pre-emergence, Preemergence, 31 g ai/ha, scale 0 to 100 (0 no effect, 100 complete control), read-out: Plant response rating, Pigweed) | pest or weed control at 62 g/ha ([1]; pre-emergence, Preemergence, scale 0 to 100 (0 no effect, 100 complete control), read-out: Plant response rating, Pigweed) | pest or weed control at 125 g/ha [3, 14] | pest or weed control at 125 g/ha ([3]; pre-emergence, Preemergence, read-out: Plant response rating (scale 0 to 100), Velvetleaf) | pest or weed control at 16 g/ha [3, 15] | pest or weed control at 31 g/ha [3, 15] | pest or weed control at 62 g/ha [3, 15] | pest or weed control at 125 g/ha ([5]; pre-emergence, Preemergence, read-out: Plant response rating (scale 0 to 100), Foxtail, Giant) | pest or weed control at 62 g/ha [8, 33] | pest or weed control at 125 g/ha [8, 33] | pest or weed control at 125 g/ha ([8]; pre-emergence, Preemergence, read-out: Plant response rating (scale 0 to 100), Lambsquarters) | pest or weed control at 16 g/ha [8, 34] | pest or weed control at 31 g/ha [8, 34] | pest or weed control at 62 g/ha [8, 34]
5%: pest or weed control at 62 g/ha [2, 11] | pest or weed control at 125 g/ha [2, 11] | pest or weed control at 16 g/ha [7, 28] | pest or weed control at 31 g/ha [7, 31]
35%: pest or weed control at 62 g/ha [2, 12] | pest or weed control at 125 g/ha [7, 29]
